Data from patent publication US12502440B2, “Cross-linking compounds and methods of use thereof” (North Carolina State University, priority 2019, dated 2025).
Several values for one entry are separate records, joined by “and”; a condition that tells them apart may be missing. Equal entries are not always repeated.

Experiments:
[1] = molecular target: T1, β-glucosidase from Agrobacterium sp. (Agrobacterium sp., UniProt P12614); assay: Oligomerization of compound V with β-glucosidase; type: biochemical
T1 construct: purchased Megazyme
T1 sequence (P12614 1-459): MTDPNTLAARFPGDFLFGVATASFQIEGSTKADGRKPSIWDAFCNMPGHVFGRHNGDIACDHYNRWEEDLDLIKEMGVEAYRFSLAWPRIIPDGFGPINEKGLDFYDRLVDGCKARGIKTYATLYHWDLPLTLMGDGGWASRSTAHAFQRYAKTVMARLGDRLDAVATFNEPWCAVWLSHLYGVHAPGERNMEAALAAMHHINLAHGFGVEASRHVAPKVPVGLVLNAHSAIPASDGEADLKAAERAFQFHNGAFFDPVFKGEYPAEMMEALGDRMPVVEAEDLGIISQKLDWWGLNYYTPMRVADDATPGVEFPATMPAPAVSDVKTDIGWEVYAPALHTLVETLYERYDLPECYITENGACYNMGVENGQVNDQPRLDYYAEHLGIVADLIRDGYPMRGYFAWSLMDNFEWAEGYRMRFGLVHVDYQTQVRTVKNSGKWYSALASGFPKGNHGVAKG
Experimental: The oligomerization of compound V was examined by treatment with the enzyme-glucosidase. The reaction mixture contained 50 μM of compound V and 200 nM of β-glucosidase (250-fold ratio). The reaction mixture was only faintly blue but upon centrifugation after 5 h of incubation, a blue precipitate was obtained. According to the colors of samples (FIG. 13, panel A), the yield of precipitate is low by comparison with our previously reported enzyme-substrate pairs (see Example 1). Multiple additions of enzyme (4×0.20 μM of enzyme stock, every 2 h) and longer incubation times (10 h or 24 h) were also tested but no increase in solution intensity or precipitate was observed. For the samples after 300 min of incubation, the precipitates suspended in H2O were screened by optical microscopy (FIG. 13, panel B) and DLS (FIG. 13, panel C). The size of aggregates is between 100 and 1000 nm as measured by DLS, which is consistent with the images obtained by optical microscopy (˜1 μm).
Quantitation of the indigogenic compounds in the precipitate and supernatant was carried out by absorption spectroscopy and multicomponent analysis (MCA) (M. Taniguchi, et al., Photochem. Photobiol., 2018, 94, 277-289) (FIG. 13, panels D and E). MCA analysis is essential due to the overlaid spectra of indigo and coumarin at 362 nm, the peak wavelength for the coumarin. Spectral deconvolution relied on knowledge of the molar absorption coefficient at 362 nm of coumarin (εcou362=2.0×10^4 M^−1 cm^−1, measured in DMF) and indigo model compound F19 (see Example 1 where F-19 is compound 43) shown in Chart 2 (εind362=0.81×10^4 M^−1 cm^−1, measured in DMSO/H2O, v/v=2/1); and the molar absorption coefficient of F19 at 630 nm (εind630=2.6×10^4 M^−1 cm^−1, measured in DMSO/H2O, v/v=2/1). The residual upon MCA was smaller than any of the components, as required for accurate analysis (Y. Zhang, et al., Phytochem. Anal., 2018, 29, 205-216). In this manner, the precipitate is composed of 51.6 nmol of coumarin and 2.8 nmol of indigoid dye; the supernatant is composed of 11.1 nmol of coumarin and 0.3 nmol of indigoid dye.
Materials. DMF (HPLC grade) was purchased from Alfa Aesar. H2O (molecular biology grade) for buffer preparation was purchased from Millipore Sigma. Compound V (5.6 mg) was dissolved in DMF (26 μL) to prepare 100 mM stock solution. Pi buffer was prepared freshly at 10 mM, pH 7. The enzyme β-glucosidase from Agrobacterium sp. was purchased from MegaZyme and was dissolved in Pi buffer at 10 μM to prepare the stock solution.
To screen the oligomerization procedure of compound V, samples of Pi buffer (1859 μL), DMF (100 μL), […]-glucosidase stock (40 μL) and compound V stock (1 μL) were mixed in a 2-mL Eppendorf tube. The resulting mixed sample (2.0 mL) contains 50 μM of compound V as the substrate and 0.20 μM of β-glucosidase as the enzyme. Three identical samples were prepared for different assays. For a control sample, 40 μL of Pi buffer was added as a replacement for the β-glucosidase stock solution. The tubes were incubated at 37° C. for 5 h, and pictures of the tubes were captured at 0, 15, 30, 60, 120, 180 and 300 min. After 300 min, the tubes were centrifuged at 20,000×g for 10 min to isolate any precipitate from the supernatant. No precipitate formed in the control sample.
Three samples were treated differently for three assays: (1) for sample 1, the precipitate was dissolved in 100 μL of DMF for absorption screening; (2) for sample 2, the precipitate was suspended in 100 μL of H2O for microscopic imaging; and (3) for sample 3, the precipitate was suspended in 1000 μL of H2O for dynamic light scattering (DLS) assay. The supernatant of sample 1 was freeze-dried under high vacuum and afterwards dissolved in 100 μL of DMF for absorption screening. The absorption spectra of the precipitates and supernatants were employed for quantitation of indigo and coumarin. […]

[2] = molecular target: T2, β-glucosidase from Agrobacterium (Agrobacterium sp., UniProt P12614); assay: Indigogenic reaction with β-glucosidase from Agrobacterium; type: biochemical; details: as E4 but ε measured for 43 (footnote g)
T2 construct: purchased Megazyme
T2 sequence (P12614 1-459): T1 sequence (P12614 1-459)
Experimental: Next, the β-glucosidase from Agrobacterium sp. was investigated as the trigger enzyme for indigoid dye formation. […] The reaction was carried out using the enzyme (200 nM) and indoxyl-glucoside 33 (100 μM) in phosphate buffer (pH 4-9, containing 2% DMF) at 37° C. […] Note that with 200 nM enzyme and 100 μM substrate, complete reaction requires 500 turnovers of each enzyme.
Reactions with β-glucosidase from Agrobacterium. An indoxyl compound in DMF (2 μL, 5 mM) and β-glucosidase from Agrobacterium in 10 mM phosphate buffer [2 μL, 10 μM, pH 7.0, containing 50 mM NaCl and 0.6 M (NH4)2SO4] were mixed with 50 mM phosphate buffer (96 μL, pH 7.0). The reaction mixture was incubated at 37° C. for 2 h and then centrifuged for 3 min. Any precipitate was separated from the supernatant and dissolved in DMF (200 μL). The resulting solution was analyzed by absorption spectroscopy. The experiment was repeated three times.

[3] = Solubility in aqueous buffer; type: physicochemical; details: 100 mM phosphate buffer (pH 7.4, containing 100 mM NaCl), room temperature
Source text: Water solubility of the indoxyl glucoside is important for biological applications. […] Therefore, this compound is not suitable for bioconjugation. The synthesis of 34 relies on successive substitution of the dichloroanilinotriazine unit (derived from N,N-bis(2-methoxyethyl)aniline^31 and cyanuric chloride) with indoxyl-glucoside-PEG-OH and BCN-PEG-NH2 building blocks.
To improve the water solubility of the indoxyl species, a sulfobetaine unit^32,33 was incorporated as a water-solubilizing group. Sulfobetaines are stable zwitterions over a wide range of pH. Synthesis of an indoxyl bearing a sulfobetaine unit is illustrated in Scheme 6. Boc-piperazine (35) was treated with 1,3-propane sultone to afford 36 in 63% yield. Quaternization of the tertiary nitrogen atom in 36 with 3-bromopropanol gave Boc-protected sulfobetaine 37 in 69% yield. The Boc group was cleaved with trifluoroacetic acid (TFA) to afford piperazine-TFA salt 38 in 97% yield. The N-acetyl group of 32 was selectively deprotected with NaHCO3/MeOH in 84% yield. The product 39, piperazine-TFA salt 38, and BCN-amine 14 were assembled at a triazine ring via one-flask, successive substitution of cyanuric chloride to afford 40 in 51% yield. Cleavage of the acetyl groups of sulfobetaine 40 provided 41 in 98% yield.

[4] = system: β-glucosidase from almonds; assay: Indigogenic reaction with β-glucosidase from almonds; type: biochemical; details: as E1 but ε measured for 43 (footnote g)
rat liver homogenate = assay: Indigoid-dye formation in rat liver homogenate; type: biochemical; details: as E7 but ε measured for 43 (footnote g)
Experimental: Finally, indigoid-dye formation was carried out in rat liver homogenate (Table 1, rightmost column).
Reactions in rat liver homogenate. An indoxyl compound in DMF (5 μL, 20 mM) was mixed with rat liver homogenate (95 μL). The reaction mixture was incubated at 37° C. for 24 h. After allowing to cool to room temperature, the reaction mixture was diluted with DMF (900 μL). The mixture was heated at 70° C. for 2 min and then centrifuged for 2 min. The supernatant was separated from any precipitate. This extraction procedure was repeated two or three times with DMF (100-500 μL). The combined supernatant (1500-1800 μL) was analyzed by absorption spectroscopy.

[5] = molecular target: T3, β-glucosidase from Agrobacterium plus rat liver homogenate (Agrobacterium sp., UniProt P12614); assay: Reaction of 33 with β-glucosidase from Agrobacterium in rat liver homogenate; type: biochemical; details: 33 100 μM, enzyme 200 nM, rat liver homogenate with 2% DMF, 37° C., 4 h; ε measured for 43 (footnotes g,h)
T3 construct: purchased Megazyme
T3 sequence (P12614 1-459): T1 sequence (P12614 1-459)
Experimental: Reaction of 33 with β-glucosidase from Agrobacterium in rat liver homogenate. A DMF solution of 33 (2 μL, 5 mM) and β-glucosidase from Agrobacterium in 10 mM phosphate buffer [2 μL, 10 μM, pH 7.0, containing 50 mM NaCl and 0.6 M (NH4)2SO4] were mixed with rat liver homogenate (96 μL). The reaction mixture was incubated at 37° C. for 4 h and then centrifuged for 3 min. Any precipitate was separated from the supernatant and then suspended in DMF (200 μL). The suspension was centrifuged for 3 min. The supernatant was analyzed by absorption spectroscopy.

[6] = 50 μM compound V (100 nmol), 200 nM β-glucosidase, 37° C., 300 min, MCA
[7] = 50 μM compound V (100 nmol), 200 nM β-glucosidase, 37° C., 300 min, absorption spectroscopy with MCA

Row | SMILES | total amount of coumarin calculated by MCA ([1]; 100 nmol compound V added) [nmol] | coumarin in the precipitate [1, 6] [nmol] | coumarin in the supernatant [1, 6] [nmol] | indigoid dye in the precipitate [1, 7] [nmol] | indigoid dye in the supernatant [1, 7] [nmol] | total quantity of indigoid dye ([1]; precipitate plus supernatant, 100 nmol compound V added) [nmol] | yield of indigoid dye ([1]; total indigoid dye, 100 nmol compound V added) [%] | Yield (%) of indigoid dye, β-glucosidase from Agrobacterium [2] | solubility [3] [µM] | Yield (%) of indigoid dye, β-glucosidase from almonds [4] | Yield (%) of indigoid dye, rat liver homogenate (rat liver homogenate) [%] | Yield (%) of indigoid dye, β-glucosidase from Agrobacterium plus rat liver homogenate [5]
1 | Cc1cc(=O)oc2cc(NCCNc3nc(NCCOCCOCCOCCOCCOCCN=[N+]=[N-])nc(OCCC[N+]4(CCCS(=O)(=O)[O-])CCN(c5nc(OCCOCCOCCOc6c(Br)cc7[nH]cc(O[C@@H]8O[C@H](CO)[C@@H](O)[C@H](O)[C@H]8O)c7c6Br)nc(OCCOCCOCCOc6c(Br)cc7[nH]cc(O[C@@H]8O[C@H](CO)[C@@H](O)[C@H](O)[C@H]8O)c7c6Br)n5)CC4)n3)ccc12 [Compound V, 2,4-Bis[1-(3-(β-D-glucopyranosyloxy)-4,6-dibromo-1H-indol-5-yl)-1,4,7,10-tetraoxadec-10-yl]-6-[4-(3-(2-(1-azido-3,6,9,12,15-pentaoxoheptadecylamino)-4-[2-((4-methyl-2H-chromen-2-one-7-yl)amino)ethylamino]-1,3,5-triazin-6-yloxy)propyl)-4-(3-sulfopropyl)piperazin-1-yl]-1,3,5-triazine] | 62.7 | 51.6 | 11.1 | 2.8 | 0.3 | 3.1 | 3.1 |  |  |  |  | 
2 | O=C(NCCOCCOCCNc1nc(OCCOCCOCCOc2c(Br)cc3[nH]cc(OC4O[C@H](CO)[C@@H](O)[C@H](O)[C@H]4O)c3c2Br)nc(N2CC[N+](CCCO)(CCCS(=O)(=O)[O-])CC2)n1)OC[C@@H]1[C@@H]2CCC#CCC[C@@H]21 (stereo partly shown) [compound 41] |  |  |  |  |  |  |  | 106% and 106 ± 4^g % | > 400 |  |  | 
3 | OCCOCCOCCOc1c(Br)cc2[nH]cc(O[C@@H]3O[C@H](CO)[C@@H](O)[C@H](O)[C@H]3O)c2c1Br [compound 33, 4,6-Dibromo-5-[1-hydroxy-3,6,9-trioxanon-9-yl]-1H-indol-3-yl β-D-glucopyranoside] |  |  |  |  |  |  |  | 99% and 99 ± 5^g % |  | 52% and 52^g % | < 5 | 81% and 81 ± 5%
